Laboratory results taken from ChEMBL document CHEMBL3769337, “Inspired by magnolol: design of NSAID-based compounds with excellent anti-inflammatory effects” (2015).
Activity calls are given as the source filed them. No cut-off for these calls is given here.

Legend:
[1] = tested on: Mus musculus; assay: Antiinflammatory activity in TPA induced BALB/c mouse ear edema model assessed as decrease in weight of ear punches at 0.75 uM administered topically for 6 mins prior to TPA challenge measured after 6 hrs relative to control; assay type: functional
[2] = tested on: Mus musculus; assay: Antiinflammatory activity in TPA induced BALB/c mouse ear edema model assessed as decrease in weight of ear punches administered topically for 6 mins prior to TPA challenge measured after 6 hrs relative to control; assay type: functional; design: concentration or dose not given beside the values; scale not given: the % may be the effect or the level left
[3] = tested on: Mus musculus; assay: Antiinflammatory activity in TPA induced BALB/c mouse ear edema model assessed as morphological alterations administered topically for 6 mins prior to TPA challenge measured after 6 hrs by Hematoxylin and Eosin staining based microscopy; assay type: functional, organism-based
[4] = tested on: Mus musculus; assay: Decrease in TPA induced TNF-alpha levels in TPA induced BALB/c mouse ear edema model administered topically for 6 mins prior to TPA challenge measured after 6 hrs by immunohistochemical analysis; assay type: functional, organism-based
[5] = tested on: Mus musculus; assay: In vivo inhibition of TPA induced I-kappa-B-alpha phosphorylation in TPA induced BALB/c mouse ear edema model administered topically for 6 mins prior to TPA challenge measured after 6 hrs by immunohistochemical analysis; assay type: functional, organism-based
[6] = tested on: Mus musculus; assay: In vivo inhibition of TPA induced p65 translocation form cytoplasm to nucleus in TPA induced BALB/c mouse ear edema model administered topically for 6 mins prior to TPA challenge measured after 6 hrs by immunohistochemical analysis; assay type: functional, organism-based
[7] = tested on: Mus musculus; assay: In vivo inhibition of TPA induced NF-kappa-B transcriptional activity in TPA induced BALB/c mouse ear edema model administered topically for 6 mins prior to TPA challenge measured after 6 hrs by immunohistochemical analysis; assay type: functional, organism-based
[8] = tested on: Mus musculus; assay: In vivo inhibition of TPA induced IKK activity in TPA induced BALB/c mouse ear edema model administered topically for 6 mins prior to TPA challenge measured after 6 hrs by immunohistochemical analysis; assay type: functional, organism-based
[9] = tested on: Mus musculus; assay: (§1) Antiinflammatory activity in TPA induced BALB/c mouse ear edema model assessed as decrease in inflammatory cell infiltration level administered topically for 6 mins prior to TPA challenge measured after 6 hrs by Hematoxylin and Eosin staining based microscopy; assay type: functional, organism-based
[10] = tested on: Mus musculus; assay: Decrease in TPA induced IL-1beta levels in TPA induced BALB/c mouse ear edema model administered topically for 6 mins prior to TPA challenge measured after 6 hrs by immunohistochemical analysis; assay type: functional, organism-based
[11] = tested on: Mus musculus; assay: Decrease in nuclear level of phosphorylated p65 in TPA induced BALB/c mouse ear edema model administered topically for 6 mins prior to TPA challenge measured after 6 hrs by immunohistochemical analysis; assay type: functional, organism-based
[12] = tested on: Mus musculus; assay: Decrease in TPA induced IL6 levels in TPA induced BALB/c mouse ear edema model administered topically for 6 mins prior to TPA challenge measured after 6 hrs by immunohistochemical analysis; assay type: functional, organism-based
[13] = tested on: Mus musculus; assay: Antiinflammatory activity in TPA induced BALB/c mouse ear edema model assessed as decrease in weight of ear punches compound co-treated with ketoprofen at 1:2 compound to ketoprofen ratio administered topically for 6 mins prior to TPA challenge measured after 6 hrs relative to control; assay type: functional; design: scale not given: the % may be the effect or the level left
[14] = tested on: Mus musculus; assay: as §1, with “level compound cotreated with ketoprofen at 1:1 compound to ketoprofen ratio” for “level”; assay type: functional, organism-based
[15] = tested on: Mus musculus; assay: Antiinflammatory activity in TPA induced BALB/c mouse ear edema model assessed as decrease in weight of ear punches at 1.5 uM administered topically for 6 mins prior to TPA challenge measured after 6 hrs relative to control; assay type: functional; design: scale not given: the % may be the effect or the level left
[16] = tested on: Mus musculus; assay: Antiinflammatory activity in TPA induced BALB/c mouse ear edema model assessed as decrease in weight of ear punches compound co-treated with naproxen at 1:1 compound to naproxen ratio administered topically for 6 mins prior to TPA challenge measured after 6 hrs relative to control; assay type: functional; design: scale not given: the % may be the effect or the level left
[17] = tested on: Mus musculus; assay: Antiinflammatory activity in TPA induced BALB/c mouse ear edema model assessed as decrease in weight of ear punches at 0.1 uM administered topically for 6 mins prior to TPA challenge measured after 6 hrs relative to control; assay type: functional; design: scale not given: the % may be the effect or the level left
[18] = tested on: Mus musculus; assay: Antiinflammatory activity in TPA induced BALB/c mouse ear edema model assessed as decrease in weight of ear punches compound co-treated with diflunisal at 1:1 compound to diflunisal ratio administered topically for 6 mins prior to TPA challenge measured after 6 hrs relative to control; assay type: functional; design: scale not given: the % may be the effect or the level left
[19] = tested on: Mus musculus; assay: Antiinflammatory activity in TPA induced BALB/c mouse ear edema model assessed as decrease in weight of ear punches compound co-treated with flufenamic acid at 1:1 compound to flufenamic acid ratio administered topically for 6 mins prior to TPA challenge measured after 6 hrs relative to control; assay type: functional; design: scale not given: the % may be the effect or the level left
[20] = tested on: Mus musculus; assay: Antiinflammatory activity in TPA induced BALB/c mouse ear edema model assessed as decrease in weight of ear punches at 0.325 uM administered topically for 6 mins prior to TPA challenge measured after 6 hrs relative to control; assay type: functional; design: scale not given: the % may be the effect or the level left
[21] = tested on: Mus musculus; assay: Antiinflammatory activity in TPA induced BALB/c mouse ear edema model assessed as decrease in weight of ear punches compound co-treated with diclofenac at 1:1 compound to diclofenac ratio administered topically for 6 mins prior to TPA challenge measured after 6 hrs relative to control; assay type: functional; design: scale not given: the % may be the effect or the level left
[22] = tested on: Mus musculus; assay: Antiinflammatory activity in TPA induced BALB/c mouse ear edema model assessed as decrease in weight of ear punches compound co-treated with flufenamic acid at 1:2 compound to flufenamic acid ratio administered topically for 6 mins prior to TPA challenge measured after 6 hrs relative to control; assay type: functional; design: scale not given: the % may be the effect or the level left
[23] = tested on: Mus musculus; assay: Antiinflammatory activity in TPA induced BALB/c mouse ear edema model assessed as decrease in weight of ear punches compound co-treated with ketoprofen at 1:1 compound to ketoprofen ratio administered topically for 6 mins prior to TPA challenge measured after 6 hrs relative to control; assay type: functional; design: scale not given: the % may be the effect or the level left
[24] = tested on: Mus musculus; assay: Antiinflammatory activity in TPA induced BALB/c mouse ear edema model assessed as decrease in weight of ear punches compound co-treated with naproxen at 1:2 compound to naproxen ratio administered topically for 6 mins prior to TPA challenge measured after 6 hrs relative to control; assay type: functional; design: scale not given: the % may be the effect or the level left
[25] = tested on: Mus musculus; assay: Antiinflammatory activity in TPA induced BALB/c mouse ear edema model assessed as decrease in weight of ear punches at 3 uM administered topically for 6 mins prior to TPA challenge measured after 6 hrs relative to control; assay type: functional; design: scale not given: the % may be the effect or the level left

C=CCc1ccc(OC(=O)c2ccccc2Nc2cccc(C)c2C)c(-c2cc(CC=C)ccc2OC(=O)c2ccccc2Nc2cccc(C)c2C)c1
Activity [1]: inactive

C=CCc1ccc(O)c(-c2cc(CC=C)ccc2OC(=O)Cc2ccccc2Nc2c(Cl)cccc2Cl)c1
Activity [1]: <=90%

C=CCc1ccc(OC(=O)c2ccccc2O)c(-c2cc(CC=C)ccc2OC(=O)c2ccccc2O)c1
Activity [1]: inactive

O=C(O)Cc1ccccc1Nc1c(Cl)cccc1Cl [DICLOFENAC]
Activity [2]: 78.3%

C=CCc1ccc(O)c(-c2cc(CC=C)ccc2OC(=O)C(C)c2cccc(C(=O)c3ccccc3)c2)c1 (stereo unspecified)
Activity [3]: Active | Activity [4]: Active | inhibition [5]: Active | inhibition [6]: Active | inhibition [7]: Active | inhibition [8]: Active | Activity [1]: <=90% | Activity [9]: Active | Activity [10]: Active | Activity [11]: Active | Activity [12]: Active

C=CCc1ccc(O)c(-c2cc(CC=C)ccc2OC(=O)c2ccccc2Nc2cccc(C(F)(F)F)c2)c1
Activity [1]: <=90%

O=C(O)c1cc(-c2ccc(F)cc2F)ccc1O [DIFLUNISAL]
Activity [2]: 80.5%

C=CCc1ccc(O)c(-c2cc(CC=C)ccc2O)c1 [MAGNOLOL]
Activity [13]: 72.7% | Activity [14]: Active | Activity [15]: 91.7% | Activity [16]: 40.2% | Activity [17]: 8.3% | Activity [18]: 94.9% | Activity [2]: Dose-dependent effect | Activity ([2]; record 2): 52.2% | Activity [19]: 70.4% | Activity [20]: 16.7% | Activity [21]: 87.9% | Activity [1]: 58.3% | Activity [9]: Active | Activity [22]: 54.2% | Activity [23]: 16.6% | Activity [24]: 92.8% | Activity [25]: 96.7%

C=CCc1ccc(OC(=O)c2cc(-c3ccc(F)cc3F)ccc2O)c(-c2cc(CC=C)ccc2OC(=O)c2cc(-c3ccc(F)cc3F)ccc2O)c1
Activity [1]: inactive

C=CCc1ccc(O)c(-c2cc(CC=C)ccc2OC(=O)[C@@H](C)c2ccc3cc(OC)ccc3c2)c1
Activity [1]: <=90%

C=CCc1ccc(OC(=O)Cc2ccccc2Nc2c(Cl)cccc2Cl)c(-c2cc(CC=C)ccc2OC(=O)Cc2ccccc2Nc2c(Cl)cccc2Cl)c1
Activity [1]: inactive

C=CCc1ccc(OC(=O)c2ccccc2Nc2cccc(C(F)(F)F)c2)c(-c2cc(CC=C)ccc2OC(=O)c2ccccc2Nc2cccc(C(F)(F)F)c2)c1
Activity [1]: <=90%

C=CCc1ccc(OC(=O)C(C)c2cccc(C(=O)c3ccccc3)c2)c(-c2cc(CC=C)ccc2OC(=O)C(C)c2cccc(C(=O)c3ccccc3)c2)c1 (stereo unspecified)
Activity [1]: <=90%

O=C(O)c1ccccc1Nc1cccc(C(F)(F)F)c1 [FLUFENAMIC ACID]
Activity [2]: 75.8%

COc1ccc2cc([C@H](C)C(=O)O)ccc2c1 [NAPROXEN]
Activity [2]: 46%

C=CCc1ccc(O)c(-c2cc(CC=C)ccc2OC(=O)c2cc(-c3ccc(F)cc3F)ccc2O)c1
Activity [1]: <=90%

CC(C(=O)O)c1cccc(C(=O)c2ccccc2)c1 (stereo unspecified) [KETOPROFEN]
Activity [2]: 10.9% | Activity [9]: Active

C=CCc1ccc(OC(=O)[C@@H](C)c2ccc3cc(OC)ccc3c2)c(-c2cc(CC=C)ccc2OC(=O)[C@@H](C)c2ccc3cc(OC)ccc3c2)c1
Activity [1]: <=90%

C=CCc1ccc(OC(=O)CC2(CC)OCCc3c2[nH]c2c(CC)cccc32)c(-c2cc(CC=C)ccc2OC(=O)CC2(CC)OCCc3c2[nH]c2c(CC)cccc32)c1 (stereo unspecified)
Activity [1]: inactive
